The text below walks through data of patent US5972899A, “Apoptosis induced by Shigella IpaB” (New York University, priority 1996, dated 1999).

This assay concerns J774 cells infected with S. flexneri M90T. The assay can be described thus: LDH release cytotoxicity assay, J774 cells infected with S. flexneri M90T. The assay is classed as cell-based, murine. How it is done:
In the studies the results of which are shown in FIG. 5, 2×10^4 J774 or peritoneal macrophage cells were seeded onto 96-well plates 18 hours before infection with M90T at a multiplicity of infection of 25 bacteria per cell (Clerc, P. L. et al., supra). Two hours after infection, supernatants of the infected macrophages were assayed for LDH using the Cytotox96® kit (Promega) according to the manufacture's instructions. The percent cytotoxicity was calculated as: [formula] where spontaneous release is the amount of LDH activity in supernatants of cells not infected and total release is the LDH activity in macrophage lysates. ICE inhibitor was added 1 h before infection at a concentration of 25 μg/ml.

For `CC(=O)N[C@@H](Cc1ccc(O)cc1)C(=O)N[C@H](C(=O)N[C@@H](C)C(=O)N[C@H](C=O)CC(=O)O)C(C)C` [Ac-YVAD-CHO], for the setting “Mus musculus, ICE inhibitor 25 μg/ml added 1 h before infection, M90T at 25 bacteria per cell, LDH release 2 h after infection, read-out: inhibition of S. flexneri-induced cell death”, the inhibition (in general, the relative decrease from the control value, in per cent) at 25 µg/mL worked out at 81.5%. Besides, for the setting “inhibitor washed away (FIG. 5)”, the “reversibility of the inhibition of cell death” value is listed as “reversed by washing away the inhibitor”.
